Test results as given in article PMC4177084 (Journal of Thyroid Research, 2014).

Experiments:
[1] = tested on: 8305C cells; assay: Antiproliferation assay (WST-8); format: cell-based; settings: Homo sapiens, 72 h; 8305C (ATC), antiproliferative, 3 days
[2] = molecular target: T1, KIT(D816V) (Homo sapiens, UniProt P10721, D816V); assay: Cell free kinase inhibition assay; format: biochemical
T1 construct: purchased Carna Biosciences, Inc. (Kobe, Japan)

[3] = molecular target: T2, INSR (Homo sapiens, UniProt P06213); assay: Cell free kinase inhibition assay; format: biochemical
T2 construct: purchased Carna Biosciences, Inc. (Kobe, Japan)

[4] = molecular target: T3, EPHB2 (Homo sapiens, UniProt P29323); assay: Cell free kinase inhibition assay; format: biochemical
T3 construct: purchased Carna Biosciences, Inc. (Kobe, Japan)

[5] = molecular target: T4, CDK2/CycE1 (Homo sapiens, UniProt P24941); assay: Cell free kinase inhibition assay; format: biochemical
T4 construct: purchased Carna Biosciences, Inc. (Kobe, Japan)

[6] = tested on: FTC-238 cells; assay: Antiproliferation assay (WST-8); format: cell-based, human; settings: Homo sapiens, 72 h; FTC-238 (DTC), antiproliferative, 3 days
[7] = tested on: CCDC-RET, human DTC TPC1 cell lines; settings: cited from earlier work
[8] = molecular target: T5, COT (Homo sapiens, UniProt P41279); assay: Cell free kinase inhibition assay; format: biochemical
T5 construct: purchased Carna Biosciences, Inc. (Kobe, Japan)
Protocol: […]. Briefly, each test compound was mixed with enzyme, substrate, ATP, and Mg under appropriate buffer conditions for the ELISA or MSA. […] IC50 values (the half maximal inhibitory concentration) were calculated from concentrations versus % inhibition curves.

[9] = molecular target: T6, NEK2 (Homo sapiens, UniProt P51955); assay: Cell free kinase inhibition assay; format: biochemical
T6 construct: purchased Carna Biosciences, Inc. (Kobe, Japan)

[10] = molecular target: T7, LCK (Homo sapiens, UniProt P06239); assay: Cell free kinase inhibition assay; format: biochemical
T7 construct: purchased Carna Biosciences, Inc. (Kobe, Japan)

[11] = molecular target: T8, IRAK4 (Homo sapiens, UniProt Q9NWZ3); assay: Cell free kinase inhibition assay; format: biochemical
T8 construct: purchased Carna Biosciences, Inc. (Kobe, Japan)

[12] = Macroscopic changes and body weight during treatment of xenograft-bearing mice; format: in vivo; settings: nude mice bearing xenografts, during daily oral treatment
Protocol: Tumor cells were cultured in appropriate culture mediums. Cells were harvested with 0.05% or 0.25% (w/v) trypsin/EDTA and suspended with 50% (v/v) BD Matrigel (BD Biosciences, San Jose, CA) in the mixture of culture mediums at a density of 5–10 × 10^7 cells/mL. Then, 0.1-0.2 mL of the cell suspension was inoculated subcutaneously into the right flank region of each mouse. […] The tumor size was measured in two dimensions by using a caliper, and the volume was calculated by using the formula: tumor volume (mm^3) = 1/2 length (mm) × [width (mm)]^2. The change in tumor volume in the treated group relative to that in the control group was calculated according to the following formula: ΔT/C = (ΔT/ΔC) × 100%, where ΔT and ΔC are the change in tumor volume (i.e., growth) for the treated and vehicle control group, respectively. The percentage of tumor growth inhibition (%TGI) was calculated from the formula: [(1 − ΔT/ΔC) × 100].

[13] = molecular target: T9, PDGFRβ (Homo sapiens, UniProt P09619); assay: Cell free kinase inhibition assay; format: biochemical
T9 construct: purchased Carna Biosciences, Inc. (Kobe, Japan)

[14] = molecular target: T10, PIM1 (Homo sapiens, UniProt P11309); assay: Cell free kinase inhibition assay; format: biochemical
T10 construct: purchased Carna Biosciences, Inc. (Kobe, Japan)

[15] = tested on: Nthy-ori 3-1 cells; assay: Antiproliferation assay (WST-8); format: cell-based, human; settings: Homo sapiens, 72 h; Nthy-ori 3-1 (normal thyroid), antiproliferative, 3 days
[16] = molecular target: T11, FGFR1 (Homo sapiens, UniProt P11362); assay: Cell free kinase inhibition assay; format: biochemical
T11 construct: purchased Carna Biosciences, Inc. (Kobe, Japan)

[17] = tested on: FRS2; assay: Western blot of FRS2 phosphorylation in RO82-W-1 xenografts; format: in vivo, nude mice; settings: 2 h after single oral 3, 10, 30, or 100 mg/kg
[18] = tested on: FTC-236 cells; assay: Antiproliferation assay (WST-8); format: cell-based, human; settings: Homo sapiens, 72 h; FTC-236 (DTC), antiproliferative, 3 days; read-out: IC50
[19] = molecular target: T12, MLK1 (Homo sapiens, UniProt P80192); assay: Cell free kinase inhibition assay; format: biochemical
T12 construct: purchased Carna Biosciences, Inc. (Kobe, Japan)

[20] = molecular target: T13, KIF5B-RET (wild-type) (Homo sapiens, UniProt P07949+P33176); assay: Western blot of RET phosphorylation in Nthy-ori 3-1 transfectants; format: cell-based; settings: 1 h
T13 construct: KIF5B N-terminal portion (fusion partner); expressed in transfected cells; host or cells: Nthy-ori 3-1 (human normal thyroid cells), plasmid pCLxIP KIF5B-RET
From the text: (§1) The human full-length KIF5B-RET gene was chemically synthesized by GenScript Corp. (Piscataway, NJ) and then amplified by polymerase chain reaction (PCR) using a primer set containing attB recombination sequences. ENTRY vectors for the Gateway cloning system (Life Technologies) were generated via the BP Clonase reaction using the PCR products and the plasmid pDONR221. The expression vector pCLxIP KIF5B-RET was generated via the LR Clonase reaction between each ENTRY vector and the destination vector pCLxIP-DEST [37]. Expression vectors for KIF5B-RET M918T were generated by introducing a point mutation into the pCLxIP KIF5B-RET expression vector.

[21] = molecular target: T14, KIF5B-RET (M918T) (Homo sapiens, UniProt P07949+P33176, M918T); assay: as above; format: cell-based; settings: 1 h
T14 construct: KIF5B N-terminal portion (fusion partner); expressed in transfected cells; host or cells: Nthy-ori 3-1 (human normal thyroid cells), plasmid pCLxIP KIF5B-RET M918T
From the text: as §1

[22] = molecular target: T15, MUSK (Homo sapiens, UniProt O15146); assay: Cell free kinase inhibition assay; format: biochemical
T15 construct: purchased Carna Biosciences, Inc. (Kobe, Japan)

[23] = molecular target: T16, PDGFRα(T674I) (Homo sapiens, UniProt P16234, T674I); assay: Cell free kinase inhibition assay; format: biochemical
T16 construct: purchased Carna Biosciences, Inc. (Kobe, Japan)

[24] = molecular target: T17, EPHA1 (Homo sapiens, UniProt P21709); assay: Cell free kinase inhibition assay; format: biochemical
T17 construct: purchased Carna Biosciences, Inc. (Kobe, Japan)

[25] = molecular target: T18, FGFR3 (Homo sapiens, UniProt P22607); assay: Cell free kinase inhibition assay; format: biochemical
T18 construct: purchased Carna Biosciences, Inc. (Kobe, Japan)

[26] = molecular target: T19, GSK3β (Homo sapiens, UniProt P49841); assay: Cell free kinase inhibition assay; format: biochemical
T19 construct: purchased Carna Biosciences, Inc. (Kobe, Japan)

[27] = molecular target: T20, SGK3 (Homo sapiens, UniProt Q96BR1); assay: Cell free kinase inhibition assay; format: biochemical
T20 construct: purchased Carna Biosciences, Inc. (Kobe, Japan)

[28] = molecular target: T21, FGFR3(K650E) (Homo sapiens, UniProt P22607, K650E); assay: Cell free kinase inhibition assay; format: biochemical
T21 construct: purchased Carna Biosciences, Inc. (Kobe, Japan)

[29] = tested on: RET (C634W) and ERK1/2; assay: Western blot of RET phosphorylation in TT cells; settings: cultured TT cells, 1 h treatment

T20 sequence (Q96BR1 whole entry): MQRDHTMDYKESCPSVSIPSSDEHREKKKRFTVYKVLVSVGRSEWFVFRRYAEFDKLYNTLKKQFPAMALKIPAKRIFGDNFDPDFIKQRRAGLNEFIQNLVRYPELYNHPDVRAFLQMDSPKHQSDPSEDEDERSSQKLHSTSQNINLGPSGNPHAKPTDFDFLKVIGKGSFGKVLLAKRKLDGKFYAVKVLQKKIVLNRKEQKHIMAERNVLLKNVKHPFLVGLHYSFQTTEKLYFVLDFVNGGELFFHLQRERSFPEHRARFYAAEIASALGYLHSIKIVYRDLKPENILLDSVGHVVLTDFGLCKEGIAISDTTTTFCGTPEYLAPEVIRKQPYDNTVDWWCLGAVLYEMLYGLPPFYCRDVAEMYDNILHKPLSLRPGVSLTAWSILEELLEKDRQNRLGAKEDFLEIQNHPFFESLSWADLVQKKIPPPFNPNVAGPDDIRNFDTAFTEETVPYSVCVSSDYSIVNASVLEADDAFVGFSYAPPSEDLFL
T1 sequence (P10721 26-976 D816V): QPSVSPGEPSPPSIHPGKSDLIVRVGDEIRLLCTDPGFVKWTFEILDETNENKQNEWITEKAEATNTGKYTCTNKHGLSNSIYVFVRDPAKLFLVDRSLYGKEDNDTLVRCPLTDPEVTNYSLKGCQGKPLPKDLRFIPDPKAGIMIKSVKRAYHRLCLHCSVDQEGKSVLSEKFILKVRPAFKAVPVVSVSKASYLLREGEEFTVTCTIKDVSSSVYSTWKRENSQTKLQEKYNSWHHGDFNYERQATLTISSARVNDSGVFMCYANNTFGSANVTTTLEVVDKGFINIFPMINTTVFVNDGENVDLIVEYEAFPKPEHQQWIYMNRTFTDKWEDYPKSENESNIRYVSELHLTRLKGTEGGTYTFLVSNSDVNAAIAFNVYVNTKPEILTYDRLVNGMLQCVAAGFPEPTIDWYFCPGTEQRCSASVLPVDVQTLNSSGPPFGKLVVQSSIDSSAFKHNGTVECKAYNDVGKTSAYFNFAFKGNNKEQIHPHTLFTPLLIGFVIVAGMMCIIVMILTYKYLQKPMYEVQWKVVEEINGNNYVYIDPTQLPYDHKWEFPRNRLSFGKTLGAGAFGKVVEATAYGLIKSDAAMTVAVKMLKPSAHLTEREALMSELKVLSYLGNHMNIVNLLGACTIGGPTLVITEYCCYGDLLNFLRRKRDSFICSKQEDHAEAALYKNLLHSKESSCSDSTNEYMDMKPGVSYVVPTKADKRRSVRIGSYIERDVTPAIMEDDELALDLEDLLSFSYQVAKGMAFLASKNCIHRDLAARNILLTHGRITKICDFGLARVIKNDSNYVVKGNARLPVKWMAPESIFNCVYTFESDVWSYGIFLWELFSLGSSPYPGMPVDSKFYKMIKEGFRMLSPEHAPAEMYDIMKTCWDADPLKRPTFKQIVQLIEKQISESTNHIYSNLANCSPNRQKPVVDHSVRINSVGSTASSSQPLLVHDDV
T16 sequence (P16234 24-1089 T674I): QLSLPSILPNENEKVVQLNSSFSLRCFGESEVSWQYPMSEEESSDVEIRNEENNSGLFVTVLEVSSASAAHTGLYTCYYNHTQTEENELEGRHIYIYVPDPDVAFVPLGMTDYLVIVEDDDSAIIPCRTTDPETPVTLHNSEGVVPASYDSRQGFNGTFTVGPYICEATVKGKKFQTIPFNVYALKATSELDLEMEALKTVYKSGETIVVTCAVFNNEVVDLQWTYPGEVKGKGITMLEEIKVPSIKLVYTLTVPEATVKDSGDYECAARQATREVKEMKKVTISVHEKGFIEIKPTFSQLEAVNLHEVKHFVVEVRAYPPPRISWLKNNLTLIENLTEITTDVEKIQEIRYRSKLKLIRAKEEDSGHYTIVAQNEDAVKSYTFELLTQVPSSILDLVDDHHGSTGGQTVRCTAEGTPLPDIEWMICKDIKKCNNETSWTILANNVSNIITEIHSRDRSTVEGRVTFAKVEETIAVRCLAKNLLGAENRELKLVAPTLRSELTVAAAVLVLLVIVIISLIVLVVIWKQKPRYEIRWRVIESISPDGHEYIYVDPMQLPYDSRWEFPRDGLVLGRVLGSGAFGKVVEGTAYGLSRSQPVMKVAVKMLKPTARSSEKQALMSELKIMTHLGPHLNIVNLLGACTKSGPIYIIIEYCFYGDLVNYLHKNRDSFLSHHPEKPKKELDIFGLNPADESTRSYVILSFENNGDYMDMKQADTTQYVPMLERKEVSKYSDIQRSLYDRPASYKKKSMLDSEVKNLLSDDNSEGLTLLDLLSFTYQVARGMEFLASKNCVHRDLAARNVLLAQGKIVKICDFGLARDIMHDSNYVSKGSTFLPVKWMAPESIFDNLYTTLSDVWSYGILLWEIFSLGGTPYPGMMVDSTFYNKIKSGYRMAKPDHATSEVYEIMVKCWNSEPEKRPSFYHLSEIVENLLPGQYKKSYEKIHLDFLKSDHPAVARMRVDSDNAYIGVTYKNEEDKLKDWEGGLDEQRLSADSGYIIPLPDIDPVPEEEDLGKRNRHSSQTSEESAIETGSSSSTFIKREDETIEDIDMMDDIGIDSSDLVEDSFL
T3 sequence (P29323 19-1055): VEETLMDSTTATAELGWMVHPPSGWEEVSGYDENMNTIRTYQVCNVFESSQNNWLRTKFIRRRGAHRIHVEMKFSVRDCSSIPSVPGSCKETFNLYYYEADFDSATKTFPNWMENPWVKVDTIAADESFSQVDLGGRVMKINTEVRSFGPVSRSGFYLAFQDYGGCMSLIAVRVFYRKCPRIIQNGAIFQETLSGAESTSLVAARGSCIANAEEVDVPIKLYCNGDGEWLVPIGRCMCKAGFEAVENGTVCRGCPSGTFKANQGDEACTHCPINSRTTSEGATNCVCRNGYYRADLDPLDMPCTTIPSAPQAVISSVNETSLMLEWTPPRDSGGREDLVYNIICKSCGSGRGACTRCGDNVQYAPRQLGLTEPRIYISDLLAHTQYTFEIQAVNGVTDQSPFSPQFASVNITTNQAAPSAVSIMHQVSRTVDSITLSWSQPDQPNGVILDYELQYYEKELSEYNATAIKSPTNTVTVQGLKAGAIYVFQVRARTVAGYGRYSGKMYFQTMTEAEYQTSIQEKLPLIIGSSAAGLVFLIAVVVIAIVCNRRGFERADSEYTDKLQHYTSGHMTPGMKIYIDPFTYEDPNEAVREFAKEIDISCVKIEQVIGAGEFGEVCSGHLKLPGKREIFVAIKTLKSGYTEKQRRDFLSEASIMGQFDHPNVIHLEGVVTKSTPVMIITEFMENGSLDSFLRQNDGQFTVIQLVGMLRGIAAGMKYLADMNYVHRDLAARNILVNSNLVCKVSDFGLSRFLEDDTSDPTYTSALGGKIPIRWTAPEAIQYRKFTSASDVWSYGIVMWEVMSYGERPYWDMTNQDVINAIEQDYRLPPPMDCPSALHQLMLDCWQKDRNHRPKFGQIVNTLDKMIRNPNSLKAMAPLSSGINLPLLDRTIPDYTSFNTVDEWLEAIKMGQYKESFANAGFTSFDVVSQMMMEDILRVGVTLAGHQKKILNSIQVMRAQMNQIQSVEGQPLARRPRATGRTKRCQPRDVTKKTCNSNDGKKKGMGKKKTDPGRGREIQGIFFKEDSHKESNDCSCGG
T12 sequence (P80192 whole entry): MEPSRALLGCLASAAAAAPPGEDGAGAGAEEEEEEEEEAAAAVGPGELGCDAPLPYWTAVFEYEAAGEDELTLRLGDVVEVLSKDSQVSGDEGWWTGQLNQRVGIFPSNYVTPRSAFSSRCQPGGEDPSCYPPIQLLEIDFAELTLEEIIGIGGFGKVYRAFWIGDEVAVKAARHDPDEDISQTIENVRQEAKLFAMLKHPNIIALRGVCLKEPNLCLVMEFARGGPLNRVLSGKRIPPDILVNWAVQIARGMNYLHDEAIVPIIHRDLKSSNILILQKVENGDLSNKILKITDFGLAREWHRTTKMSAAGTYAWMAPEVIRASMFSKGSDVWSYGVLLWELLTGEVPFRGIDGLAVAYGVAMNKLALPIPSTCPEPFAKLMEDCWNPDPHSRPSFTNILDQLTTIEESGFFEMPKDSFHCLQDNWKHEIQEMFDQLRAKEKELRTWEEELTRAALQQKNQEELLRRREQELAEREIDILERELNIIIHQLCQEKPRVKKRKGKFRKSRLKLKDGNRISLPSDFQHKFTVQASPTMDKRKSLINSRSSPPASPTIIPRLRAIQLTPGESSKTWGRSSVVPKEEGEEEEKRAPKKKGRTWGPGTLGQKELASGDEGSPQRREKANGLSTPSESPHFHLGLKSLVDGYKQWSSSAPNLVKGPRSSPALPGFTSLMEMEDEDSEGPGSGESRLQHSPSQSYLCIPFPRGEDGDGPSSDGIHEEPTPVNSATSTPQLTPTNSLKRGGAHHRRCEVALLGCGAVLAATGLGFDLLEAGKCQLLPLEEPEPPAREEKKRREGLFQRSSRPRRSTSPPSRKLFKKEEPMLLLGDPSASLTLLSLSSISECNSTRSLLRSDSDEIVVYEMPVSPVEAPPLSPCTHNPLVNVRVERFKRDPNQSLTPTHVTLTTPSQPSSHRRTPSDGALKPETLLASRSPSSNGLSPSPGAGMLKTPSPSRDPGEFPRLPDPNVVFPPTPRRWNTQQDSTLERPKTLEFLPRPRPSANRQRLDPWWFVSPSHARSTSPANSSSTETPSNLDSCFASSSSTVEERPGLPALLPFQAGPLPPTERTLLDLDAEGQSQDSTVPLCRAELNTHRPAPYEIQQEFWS
T14 sequence (P07949 713-1063 M918T limits assumed, one chain of several): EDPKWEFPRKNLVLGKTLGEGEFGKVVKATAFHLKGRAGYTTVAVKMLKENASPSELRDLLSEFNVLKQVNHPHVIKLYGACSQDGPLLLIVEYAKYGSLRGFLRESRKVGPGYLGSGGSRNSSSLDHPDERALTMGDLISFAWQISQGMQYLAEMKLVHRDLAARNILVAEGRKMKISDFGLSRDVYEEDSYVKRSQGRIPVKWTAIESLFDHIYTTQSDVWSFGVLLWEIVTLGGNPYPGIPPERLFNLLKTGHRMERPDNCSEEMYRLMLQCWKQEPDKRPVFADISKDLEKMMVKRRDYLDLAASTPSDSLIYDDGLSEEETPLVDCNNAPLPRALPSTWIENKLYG
T13 sequence (P07949 713-1063 limits assumed, one chain of several): as the sequence (P07949 713-1063 M918T limits assumed, one chain of several) above, with T206M counted along it

In the case of `COc1cc2nccc(Oc3ccc(NC(=O)NC4CC4)c(Cl)c3)c2cc1C(N)=O` [Lenvatinib, Lenvatinib mesilate], the IC50 [1] is reported as 26 µM, the IC50 [2] is reported as over 10 µM and the IC50 [3] is reported as over 10 µM. For the same compound, the IC50 [4] was 0.66 µM, the IC50 [5] was over 10 µM and the IC50 [6] was 18 µM. For the same compound, the “phosphorylation of CCDC-RET, in vitro proliferation and in vivo tumor growth of TPC1” value [7] was “inhibits”, the IC50 [8] was over 10 µM and the IC50 [9] was over 10 µM. For the same compound, the IC50 [10] was 0.13 µM, the IC50 [11] was over 10 µM and the “macroscopic changes or loss of body weight” value [12] was “no macroscopic changes or loss of body weight were observed”. It also gave an IC50 [13] of 0.16 µM, an IC50 [14] of over 10 µM and an IC50 [15] of 15 µM. For the same compound, the IC50 [16] was 0.061 µM, the “phosphorylation of FRS2” value [17] was “decreased” and the IC50 [18] was 17 µM. For the same compound, the IC50 [19] was over 10 µM, the “phosphorylation of wild-type RET” value [20] was “inhibited” and the “phosphorylation of M918T mutant RET” value [21] was “inhibited”. For the same compound, the IC50 [22] was over 10 µM, the IC50 [23] was 0.63 µM and the IC50 [24] was 5.1 µM. For the same compound, the IC50 [25] was 0.052 µM, the IC50 [26] was over 10 µM and the IC50 [27] was over 10 µM. The IC50 [28] was 0.11 µM and the “phosphorylation of RET and of ERK1/2” value [29] was “inhibited”.
